# In patent publication US20250215029A1 (Recludix Pharma, Inc., priority 2022, published 2025):
# Target: T1, pY641-STAT6 in PBMC (Homo sapiens, UniProt P42226)
# T1 construct: Cryopreserved Peripheral Blood Mononuclear Cells (PBMC) are from AllCells; host or cells: cryopreserved PBMC
# T1 sequence (P42226 1-847): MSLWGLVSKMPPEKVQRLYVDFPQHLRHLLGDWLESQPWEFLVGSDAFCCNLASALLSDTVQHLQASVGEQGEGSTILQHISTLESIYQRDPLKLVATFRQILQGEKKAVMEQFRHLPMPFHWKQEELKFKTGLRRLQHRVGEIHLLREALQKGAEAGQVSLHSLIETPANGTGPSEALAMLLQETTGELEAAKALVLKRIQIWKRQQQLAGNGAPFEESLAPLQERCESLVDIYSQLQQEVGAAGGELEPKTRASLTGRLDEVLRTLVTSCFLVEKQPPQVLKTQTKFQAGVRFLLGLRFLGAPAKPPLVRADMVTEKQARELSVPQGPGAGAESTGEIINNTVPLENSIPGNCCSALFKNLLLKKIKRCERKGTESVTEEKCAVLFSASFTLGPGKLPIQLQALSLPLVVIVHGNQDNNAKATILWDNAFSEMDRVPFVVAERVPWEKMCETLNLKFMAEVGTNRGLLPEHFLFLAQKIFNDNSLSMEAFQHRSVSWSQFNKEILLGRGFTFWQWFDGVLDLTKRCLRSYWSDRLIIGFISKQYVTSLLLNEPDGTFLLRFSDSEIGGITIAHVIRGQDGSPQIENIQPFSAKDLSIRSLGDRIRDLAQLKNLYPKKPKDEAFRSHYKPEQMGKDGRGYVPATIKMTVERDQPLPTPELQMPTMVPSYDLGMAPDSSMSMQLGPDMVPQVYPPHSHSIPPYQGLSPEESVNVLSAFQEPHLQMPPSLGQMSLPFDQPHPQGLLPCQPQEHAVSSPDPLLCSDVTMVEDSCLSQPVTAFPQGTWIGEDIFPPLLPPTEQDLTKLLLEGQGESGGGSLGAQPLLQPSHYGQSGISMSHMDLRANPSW
# Assay: MSD-pSTAT-PBMC Assay (pSTAT6, IL-4 stimulated)
# Format: cell-based
# Details: PBMC, compound 3 hrs, then 1 ng/mL IL-4 for 10 min; Table 115; read-out: STAT6
# Procedure, shortened: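 Inhibition of cytokine-induced STAT phosphorylation was measured in recovered human PBMC after 3 hrs compound exposure and a 10 min IL-4 (1 ng/mL) or IL-6 (10 ng/mL) challenge. MSD detection of pY641-STAT6 or pY705-STAT3 yielded IC50 values.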
row,IC50 [nM],SMILES
1,100 to 1000,"COCCOCC(=O)SCCOP(=O)(OCCSC(=O)COCCOC)C(F)(F)c1ccc2ccc(C(=O)N[C@H]3CCCC[C@H]4CC[C@@H](C(=O)N5C[C@@H](C#N)[C@H](c6cc[nH]c(=O)c6)C5)N4C3=O)cc2c1 (single isomer, unassigned) [Compound 1013]"

# Same assay, conditions: STAT6, PBMC, compound 3 hrs, then 1 ng/mL IL-4 for 10 min; Table 115
row,SMILES,IC50 [nM]
1,"C[C@H](NP(=O)(Oc1ccccc1)[C@@H](F)c1ccc2sc(C(=O)N[C@H]3CCC[C@H]4CC[C@@H](C(=O)N5C[C@@H](c6cccnc6)CC56CC6)N4C3=O)cc2c1)C(=O)OCc1cccnn1 (stereo partly drawn) [Compound 366, pyridazin-3-ylmethyl (((R)-fluoro(2-(((3S,6S,9aS)-5-oxo-3-((R)-6-(pyridin-3-yl)-4-azaspiro[2.4]heptane-4-carbonyl)octahydro-1H-pyrrolo[1,2-a]azepin-6-yl)carbamoyl)benzo [b]thiophen-5-yl)methyl)(phenoxy)phosphoryl)-L-alaninate]",100 to 1000
2,"CCCOC(=O)[C@H](C)NP(=O)(Oc1ccccc1)C(F)c1ccc2sc(C(=O)N[C@H]3CCCC[C@H]4CC[C@@H](C(=O)N5CC(c6ccn(C)c(=O)c6)CC56CC6)N4C3=O)cc2c1 (stereo partly drawn) [Compound 449, propyl ((fluoro(2-(((3S,6S,10aS)-3-(6-(1-methyl-2-oxo-1,2-dihydropyridin-4-yl)-4-azaspiro[2.4]heptane-4-carbonyl)-5-oxodecahydropyrrolo [1,2-a]azocin-6-yl)carbamoyl)benzo [b]thiophen-5-yl)methyl)(phenoxy)phosphoryl)-L-alaninate]",100 to 1000
3,"CCCOC(=O)[C@H](C)NP(=O)(Oc1ccccc1)[C@H](F)c1ccc2sc(C(=O)N[C@H]3CCC[C@H]4CC[C@@H](C(=O)N5C[C@@H](c6ccccc6)[C@H](C#N)C56CC6)N4C3=O)cc2c1 (stereo partly drawn) [Compound 387, propyl (((S)-(2-(((3S,6S,9aS)-3-((6R,7S)-7-cyano-6-phenyl-4-azaspiro[2.4]heptane-4-carbonyl)-5-oxooctahydro-1H-pyrrolo[1,2-a]azepin-6-yl)carbamoyl)benzo [b]thiophen-5-yl)fluoromethyl) (phenoxy)phosphoryl)-L-alaninate]",< 100
4,"CC(C)OC(=O)[C@H](C)NP(=O)(Oc1ccccc1)[C@@H](F)c1ccc2sc(C(=O)N[C@H]3CCCC[C@H]4CC[C@@H](C(=O)N5C[C@@H](c6cccnc6)CC56CC6)N4C3=O)cc2c1 (stereo partly drawn) [Compound 474, isopropyl (((R)-fluoro(2-(((3S,6S,10aS)-5-oxo-3-((R)-6-(pyridin-3-yl)-4-azaspiro[2.4]heptane-4-carbonyl)decahydropyrrolo[1,2-a]azocin-6-yl)carbamoyl)benzo [b]thiophen-5-yl)methyl)(phenoxy)phosphoryl)-L-alaninate]",< 100
5,"C[C@H](NP(=O)(Oc1ccccc1)[C@H](F)c1ccc2sc(C(=O)N[C@H]3CCC[C@H]4CC[C@@H](C(=O)N5C[C@H](c6ccccc6)[C@@H](C#N)C56CC6)N4C3=O)cc2c1)C(=O)OC1CC1 (stereo partly drawn) [Compound 350, cyclopropyl (((S)-(2-(((3S,6S,9aS)-3-((6S,7R)-7-cyano-6-phenyl-4-azaspiro[2.4]heptane-4-carbonyl)-5-oxooctahydro-1H-pyrrolo[1,2-a]azepin-6-yl)carbamoyl)benzo [b]thiophen-5-yl)fluoromethyl) (phenoxy)phosphoryl)-L-alaninate]",< 100
6,"C[C@H](NP(=O)(Oc1ccccc1)[C@@H](F)c1ccc2sc(C(=O)N[C@H]3CCCC[C@H]4CC[C@@H](C(=O)N5C[C@@H](c6cccnc6)CC56CC6)N4C3=O)cc2c1)C(=O)OCC1CCOCC1 (stereo partly drawn) [Compound 360, (tetrahydro-2H-pyran-4-yl)methyl (((R)-fluoro(2-(((3S,6S,10aS)-5-oxo-3-((R)-6-(pyridin-3-yl)-4-azaspiro[2.4]heptane-4-carbonyl)decahydropyrrolo[1,2-a]azocin-6-yl)carbamoyl)benzo [b]thiophen-5-yl)methyl)(phenoxy)phosphoryl)-L-alaninate]",< 100
7,"CCCOC(=O)[C@H](C)NP(=O)(Oc1ccccc1)C(F)c1ccc2sc(C(=O)N[C@H]3CCCC[C@H]4CC[C@@H](C(=O)N5C(=O)N(c6ccn(C)c(=O)c6)C(=O)C56CC6)N4C3=O)cc2c1 (stereo partly drawn) [Compound 977, propyl ((fluoro(2-(((3S,6S,10aS)-3-(6-(1-methyl-2-oxo-1,2-dihydropyridin-4-yl)-5,7-dioxo-4,6-diazaspiro[2.4]heptane-4-carbonyl)-5-oxodecahydropyrrolo [1,2-a]azocin-6-yl)carbamoyl)benzo [b]thiophen-5-yl)methyl)(phenoxy)phosphoryl)-L-alaninate]",100 to 1000
8,"COCCOC(=O)[C@H](C)NP(=O)(Oc1ccccc1)[C@@H](F)c1ccc2sc(C(=O)N[C@H]3CCCC[C@H]4CC[C@@H](C(=O)N5C[C@@H](c6cccnc6)CC56CC6)N4C3=O)cc2c1 (stereo partly drawn) [Compound 378, 2-methoxyethyl (((R)-fluoro(2-(((3S,6S,10aS)-5-oxo-3-((R)-6-(pyridin-3-yl)-4-azaspiro[2.4]heptane-4-carbonyl)decahydropyrrolo[1,2-a]azocin-6-yl)carbamoyl)benzo [b]thiophen-5-yl)methyl)(phenoxy)phosphoryl)-L-alaninate]",< 100
9,"CCCOC(=O)[C@H](C)N[P@@](=O)(Oc1ccccc1)[C@@H](F)c1ccc2sc(C(=O)N[C@H]3CCCC[C@H]4CC[C@@H](C(=O)N5C[C@@H](c6cccnc6)CC56CC6)N4C3=O)cc2c1 (stereo in doubt) [Compound 460, propyl (((R)-fluoro(2-(((3S,6S,10aS)-5-oxo-3-((S)-6-(pyridin-3-yl)-4-azaspiro[2.4]heptane-4-carbonyl)decahydropyrrolo[1,2-a]azocin-6-yl)carbamoyl)benzo [b]thiophen-5-yl)methyl)(phenoxy)phosphoryl)-L-alaninate]",< 100
10,"CCCOC(=O)[C@@H]1CCCN1P(=O)(Oc1ccccc1)[C@H](F)c1ccc2sc(C(=O)N[C@H]3CCC[C@H]4CC[C@@H](C(=O)N5C[C@H](c6ccccc6)[C@@H](C#N)C56CC6)N4C3=O)cc2c1 (stereo partly drawn) [Compound 487, propyl (((S)-(2-(((3S,6S,9aS)-3-((6S,7R)-7-cyano-6-phenyl-4-azaspiro[2.4]heptane-4-carbonyl)-5-oxooctahydro-1H-pyrrolo[1,2-a]azepin-6-yl)carbamoyl)benzo [b]thiophen-5-yl)fluoromethyl) (phenoxy)phosphoryl)-L-prolinate]",1000 to 3000
11,"CCCOC(=O)[C@H](C)NP(=O)(Oc1ccccc1)[C@@H](F)c1ccc2sc(C(=O)N[C@H]3CCCC[C@H]4CC[C@@H](C(=O)N5C(=O)N(c6ccc(OC)nc6)C(=O)C56CC6)N4C3=O)cc2c1 (stereo partly drawn) [Compound 329, propyl (((R)-fluoro(2-(((3S,6S,10aS)-3-(6-(6-methoxypyridin-3-yl)-5,7-dioxo-4,6-diazaspiro[2.4]heptane-4-carbonyl)-5-oxodecahydropyrrolo [1,2-a]azocin-6-yl)carbamoyl)benzo [b]thiophen-5-yl)methyl)(phenoxy)phosphoryl)-L-alaninate]",> 3000
12,"CCCOC(=O)[C@H](C)NP(=O)(Oc1ccccc1)[C@@H](F)c1ccc2sc(C(=O)N[C@H]3CCC[C@H]4CC[C@@H](C(=O)N5C[C@@H](c6cccnc6)CC56CC6)N4C3=O)cc2c1 (stereo partly drawn) [Compound 379, propyl (((R)-fluoro(2-(((3S,6S,9aS)-5-oxo-3-((R)-6-(pyridin-3-yl)-4-azaspiro[2.4]heptane-4-carbonyl)octahydro-1H-pyrrolo[1,2-a]azepin-6-yl)carbamoyl)benzo [b]thiophen-5-yl)methyl)(phenoxy)phosphoryl)-L-alaninate]",< 100
13,"COCCOC(=O)[C@H](C)NP(=O)(Oc1ccccc1)[C@@H](F)c1ccc2sc(C(=O)N[C@H]3CCC[C@H]4CC[C@@H](C(=O)N5C[C@@H](c6ccccc6)[C@H](C#N)C56CC6)N4C3=O)cc2c1 (stereo partly drawn) [Compound 361, 2-methoxyethyl (((R)-(2-(((3S,6S,9aS)-3-((6R,7S)-7-cyano-6-phenyl-4-azaspiro[2.4]heptane-4-carbonyl)-5-oxooctahydro-1H-pyrrolo[1,2-a]azepin-6-yl)carbamoyl)benzo [b]thiophen-5-yl)fluoromethyl) (phenoxy)phosphoryl)-L-alaninate]",< 100

# Same assay, conditions: read-out: STAT6; PBMC, compound 3 hrs, then 1 ng/mL IL-4 for 10 min; Table 115
row,SMILES,IC50 [nM]
1,"CCCOC(=O)[C@H](C)NP(=O)(Oc1ccccc1)[C@@H](F)c1ccc2sc(C(=O)N[C@H]3CCCC[C@H]4CC[C@@H](C(=O)N5C[C@@H](c6cccc(C(F)F)c6)[C@H](C#N)C56CC6)N4C3=O)cc2c1 (single isomer, unassigned) [Compound 483]",< 100
